Experimental data published in PubChem BioAssay (NCI).
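Interpolation was linear, between the two tested concentrations surrounding the appropriate level; five concentrations were tested over 48 hours in 96-well plates. The concentration for full growth arrest is given as TGI.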 Where a SMILES comes first, the peptide text is derived from it. The star is where a group is joined. Fmoc = O=C(OCC1c2ccccc2-c2ccccc21)*; Boc = CC(C)(C)OC(=O)*

Tests used:
Test in all cases: DTP human tumour cell line panel, 48 h
OVCAR-8 ovarian = test system: OVCAR-8 ovarian
SK-OV-3 ovarian = test system: SK-OV-3 ovarian
MDA-N = test system: MDA-N
HCT-116 colon = test system: HCT-116 colon
UACC-257 melanoma = test system: UACC-257 melanoma
U251 CNS = test system: U251 CNS
DU-145 prostate = test system: DU-145 prostate
SK-MEL-5 melanoma = test system: SK-MEL-5 melanoma
MALME-3M melanoma = test system: MALME-3M melanoma
OVCAR-3 ovarian = test system: OVCAR-3 ovarian

SMILES | TGI (OVCAR-8 ovarian) [µM] | TGI (SK-OV-3 ovarian) [µM] | TGI (MDA-N) [µM] | TGI (HCT-116 colon) [µM] | TGI (UACC-257 melanoma) [µM] | TGI (U251 CNS) [µM] | TGI (DU-145 prostate) [µM] | TGI (SK-MEL-5 melanoma) [µM] | TGI (MALME-3M melanoma) [µM] | TGI (OVCAR-3 ovarian) [µM]
CC(C)(C)OC(=O)NCCCCC(NC(=O)OCC1c2ccccc2-c2ccccc21)C(=O)N1CCCC1C(=O)NCC(N)=O (stereo not drawn) (Fmoc-Lys(Boc)-Pro-Gly-NH2; configuration not given here) | > 100 | 26.5 | 49.9 | > 100 | > 100 | 33.1 | > 100 | > 100 | 34.5 | > 100
O=C1/C(=C/c2cccc(Br)c2)CSC/C1=C\c1cccc(Br)c1 | 9.52 | 42 | 6.98 | 4.33 | 5.9 | 3.53 | 24.3 | 3.59 | 4.43 | 9.98
Cc1cc(C)c2c(n1)S(=O)(=O)N(CCCN1CCN(c3cccc(C(F)(F)F)c3)CC1)c1c-2nn(C)c1C | > 100 | > 100 | > 100 | > 100 | > 100 | > 100 | > 100 | > 100 | > 100 | > 100
CC(C)C1=CCC2C(=C1)CCC1C(C)(C(=O)O)CCCC21C (stereo not given) (tested in a mixture with another compound) | > 100 | > 100 | > 100 | > 100 | > 100 | > 100 | > 100 | > 100 | > 100 | > 100
CCCCN1C(=O)c2c(-c3sccc3N)sc(-c3sccc3N)c2C1=O | > 72.1 | 35.8 | > 34.6 | > 100 | > 100 | 51.6 | > 100 | > 100 | > 100 | 78.5
O=C(/C=C/c1ccc(O)c(O)c1)c1cc(O)cc(O)c1 | 32.8 | 42.9 | 20.5 | 25.6 | 23 | 22.7 | 44.3 | > 100 | 27.6 | 26.4
CCOC(=O)c1c(N2CCCC2)[nH]c(=O)c(C(c2ccco2)c2c(O)c(C(=O)OCC)c(N3CCCC3)[nH]c2=O)c1O | > 100 | > 100 | > 100 | > 100 | > 100 | > 100 | > 100 | > 100 | > 100 | > 100
Cc1cccnc1/N=C/c1c(O)n(C)c(=O)[nH]c1=O | > 100 | > 100 | > 100 | > 100 | > 100 | > 100 | > 100 | > 100 | 87.7 | > 100
CCCCNC(=S)Nc1nc(C(=O)NNC(=S)NC2CCCCC2)cs1 | > 100 | > 100 | > 100 | > 100 | > 100 | > 100 | > 100 | > 100 | > 100 | > 100
CCc1ccc2nc(-c3ccc(O)cc3)sc2c1 | 38.9 | 32.3 | 36 | 30.4 | 35.7 | 33.6 | 28.9 | 34.6 | 36.8 | 28.1
Cc1cc(NC[C@H](O)[C@H](O)[C@H](O)CO)c(Sc2cc(=O)[nH]c(=O)[nH]2)cc1C | > 62.5 | > 62.5 | > 62.5 | > 62.5 | > 62.5 | > 62.5 | > 62.5 | > 62.5 | > 62.5 | > 62.5
Cn1c2ccccc2c2c(=O)[nH]c(=O)[nH]c21 | > 100 | > 100 | > 100 | > 100 | > 100 | > 100 | > 100 | > 100 | > 100 | > 100
Cc1ccc(OC2CC(n3cnc4ncnc(Cl)c43)OC2Oc2ccc(C)cc2)cc1 (stereo not given) | 26.8 | > 100 | > 100 | > 100 | > 100 | > 100 | 53.2 | 46.4 | > 100 | 33.9
O=C1CCCC/C1=C\c1ccc(Br)cc1 | > 100 | 44.5 | 38.3 | 31.6 | 70.3 | 9.79 | > 100 | 44.5 | 21.5 | 44.3
O=c1[nH]c(Nc2cc(Cl)cc(Cl)c2)nc2nc[nH]c12 | > 75 | > 75 | > 75 | > 75 | > 75 | > 75 | > 75 | > 75 | > 75 | > 75
CCOC(=O)Cc1nc2sc(S(N)(=O)=O)nn2c1Br | 47.7 | > 100 | > 100 | 96.5 | > 100 | 37.9 | > 100 | 42.4 | 81.7 | 98.5
CCOC(=O)c1ccc(C(=O)/C(C(C)=O)=C2\CCCN2C)n1C | > 100 | > 100 | > 100 | > 100 | > 100 | > 100 | > 100 | > 100 | > 100 | > 100
CC(C)[Si](OC1=CCC[C@H]2NC(=O)[C@@H](Cc3ccccc3)[C@@]12C)(C(C)C)C(C)C | 24.8 | 18.9 | 14.2 | 14.1 | 16.3 | 11.6 | 22.1 | 9.58 | 34.3 | 19.7
Brc1ccc2c([C@H]3CN[C@@H](c4c[nH]c5cc(Br)ccc45)CN3)c[nH]c2c1 | 3.38 | 22.7 | 3.04 | 3.03 | 28.1 | 4.19 | 9.98 | 15.6 | 7.73 | 3.94
Cc1noc2nnn(-c3ccc(Cl)cc3)c(=O)c12 | 29.8 | 26.5 | 17.9 | 11.3 | 20.9 | 17.7 | 14.3 | 13 | 26 | 6.83
O=C(/C=C/c1cc(O)c(O)cc1O)OCCc1ccccc1 | 22.9 | 74.8 | 20.2 | > 58.4 | > 64.9 | > 57.9 | > 85.1 | 38.4 | 28.2 | 15.7

SMILES | TGI (OVCAR-8 ovarian) [µM] | TGI (SK-OV-3 ovarian) [µM] | TGI (MDA-N) [µM] | TGI (HCT-116 colon) [µM] | TGI (UACC-257 melanoma) [µM] | TGI (U251 CNS) [µM] | TGI (DU-145 prostate) [µM] | TGI (SK-MEL-5 melanoma) [µM] | TGI (MALME-3M melanoma) [µM] | TGI (OVCAR-3 ovarian) [µM]
CCCCCCCCCCCCOP(=O)(O)OCC(N)C(=O)O (stereo not given) | > 100 | 50.1 | 62.6 | 27.6 | > 100 | 26.7 | > 100 | 61.7 | > 100 | 33.2
COc1ccc2oc(OC)c(CC=C(C)C)c(=O)c2c1C | > 100 | > 100 | > 100 | > 100 | > 100 | > 100 | > 100 | > 100 | > 100 | > 100
CCOC(=O)NC(NC1=NCCS1)(C(=O)OCC)C(F)(F)F (stereo not given) | > 100 | > 100 | > 100 | > 100 | > 100 | > 100 | > 100 | > 100 | > 100 | > 100
O=C/C=C/c1ccco1 | > 100 | > 100 | > 100 | > 100 | > 100 | > 100 | > 100 | > 100 | > 100 | > 100
CC(=O)N(O)[C@@H]1CC[C@H](n2cnc3c(N)ncnc32)C1 | > 100 | > 100 | > 100 | > 100 | > 100 | > 100 | > 100 | > 100 | > 100 | > 100
CCOC(=O)C(Cl)(NC(=O)c1c(F)c(F)c(F)c(F)c1F)C(F)(F)F (stereo not given) | > 100 | > 100 | > 100 | > 100 | > 100 | > 100 | > 100 | > 100 | > 100 | > 100
CN(C)c1ccccc1CN1CCCN(Cc2ccccc2N(C)C)C1c1ccncc1 | 29 | 32.9 | 23.8 | 23.3 | 7.98 | > 100 | 31.5 | 18.3 | 23.4 | 28
COC(=O)C1=C(O)C(C(=O)OC)[C@]2(O)[C@H](C(=O)OC)[C@H]1C[C@@H](c1c(Cl)cccc1Cl)[C@H]2C(=O)OC (stereo not given in full) | 3.66 | 14.2 | 3.02 | 3.42 | 6.08 | 2.99 | 8.2 | 3.02 | 5.25 | 7.87
COC(=O)C1CCC(=O)N1C(c1ccc(OC)cc1)c1ccc(OC)cc1 (stereo not given) | > 100 | > 100 | > 100 | > 100 | > 100 | > 100 | > 100 | > 100 | > 100 | > 100
CCOC(=O)C1OC(C2(C)OC3(OC4(C=CC3O)OC(C(C)C(=O)C(C)C(O)C(C)CC(C)c3c(Cl)cc(C)c(O)c3C(=O)O)C(C)CC4C)C(C)C2OC)CC1O (stereo not given) | 13.3 | 3.26 | 4.76 | 3.75 | 8.54 | 4.24 | 5.93 | 5.59 | 1.81 | 3.9
Cc1cc(Cc2c(F)c(F)c(C(c3cc(C)no3)c3c(F)c(F)c(F)c(F)c3F)c(F)c2F)on1 (stereo not given) | > 100 | > 100 | 15.1 | > 100 | > 100 | > 100 | > 100 | > 100 | > 100 | > 100
c1ccc2c(c1)ncn2C1CCCCO1 (stereo not given) | > 100 | > 100 | > 100 | > 100 | > 100 | > 100 | > 100 | > 100 | > 100 | > 100
O=C(Cc1nccc2c1[nH]c1ccccc12)OC1C#CCSCC#C/C=C\1 (stereo not given) | > 100 | > 100 | > 100 | > 100 | > 100 | > 100 | > 100 | > 100 | > 100 | > 100
CC1(CCCO)CCCCCCCCCC(C)(CCCO)C1=O (stereo not given) | > 100 | > 100 | > 100 | > 100 | > 100 | > 100 | > 100 | > 100 | > 100 | > 100
CCOc1ccc(/C=N/[N+](C)(C)C)cc1OCC | > 10 | > 10 | > 10 | > 10 | > 10 | > 10 | > 10 | > 10 | > 10 | > 10
NC1CC2NC3CCCCC3NC2CC1N (stereo not given) | > 100 | > 100 | > 100 | > 100 | > 100 | > 100 | > 100 | 67.3 | > 100 | > 100
C/C(=C/C(=O)Nn1c(Cc2ccccc2)n[nH]c1=O)C(=O)O | > 100 | > 100 | > 100 | > 100 | > 100 | > 100 | > 100 | > 100 | > 100 | > 100
CCSc1cc(=O)n(C)c(=O)n1C | > 100 | > 100 | > 100 | > 100 | > 100 | > 100 | > 100 | > 100 | > 100 | > 100
COc1ccc(C(SCCO)(c2ccccc2)c2ccccc2)cc1 | 38.5 | 34.8 | 26 | 23.7 | 32.7 | 25.9 | 27 | 21.7 | 38.5 | 31.8
Fc1ccc2nc3n(c2c1)C(c1c(Cl)cccc1Cl)SC3 (stereo not given) | > 100 | > 100 | > 100 | > 100 | > 100 | > 100 | > 100 | > 100 | > 100 | > 100
O=C1CCC(=O)N1n1c(Cc2ccc(Cl)cc2)n[nH]c1=O | > 100 | > 100 | > 100 | > 100 | > 100 | > 100 | > 100 | > 100 | > 100 | > 100
